{
  "source": "paper PMC4907212",
  "about": "“Mucosal and blood-brain barrier transport kinetics of the plant N-alkylamide spilanthol using in vitro and in vivo models” (BMC Complementary and Alternative Medicine, 2016)",
  "key": {"[1]": {"experiment": "Pharmacokinetic oral gavage experiment in rats (serum spilanthol, one compartmental model)", "type": "in vivo, Wistar rats", "settings": "for half-life: 1.5 ml of 0.73 mg spilanthol/g dose solution, read-out: elimination half-life (converted)", "procedure": "The Wistar rats were bred in Bharat Serum and Vaccines pvt. Ltd, Thane, India (registration number 103/99/CPCSEA) and kept for the experiments at C. U. Shah College of Pharmacy, SNDT Women’s University, Santacruz, Mumbai, India (registration number 39/99/CPCSEA). The half of the rats used in the experiment were female rats and the other half male rats. Rats of 7-8 weeks old, weighing 220 g, and fasted overnight were used for the experiment.\nThe pharmacokinetic oral gavage experiment was carried out at C. U. Shah College of Pharmacy, SNDT Women’s University, Santacruz, Mumbai, India. A spilanthol dose solution was prepared with the Spilanthes acmella (L.) L. extract (A.Vogel). 1.5 ml of a spilanthol dose solution of 0.73 mg spilanthol/g dose solution in 10:20:30:40 (w/w/w/w) ethanol:PG:vitamin E-TPGS:PEG400 was administered to the rats using a gavage needle made up of stainless steel (length 3 inches and 2.5 mm internal diameter). A blank dose solution was used as well, containing ethanol, PG, vitamin E-TPGS and PEG without spilanthol. For each dose solution, six rats were used of which three were females and three males. Blood was collected (1.5 ml) from the retro orbital vein at specified time points i.e. 1, 2, 3, 4, 6, and 8 h after oral administration of the dose solution. The collected blood samples were centrifuged using a Remi R-24 centrifuge. At the end of the study, the animals were sacrificed by CO2 inhalation. All samples were immediately frozen at -80 °C until bio-analysis. The elimination rate constant was calculated using a one compartmental model using GraphPad software (La Jolla, USA), using the following equation: Ct=C0×e^−ke×t , in which t is time (h), C0 the concentration of spilanthol at time t = 0 (ng/ml), C(t) the concentration of spilanthol at time t and ke the elimination rate constant (h^−1). The elimination half-life (h) is computed as ln(2)/ke.\n60 μl of the serum samples, 60 μl of 4 % (V/V) aqueous H3PO4 solution and 30 μl of the IS solution were transferred into a 0.5 ml (LoBind Eppendorf) tube and vortexed. Interfering compounds were removed by solid phase extraction using a positive pressure-96 processor (Waters). […] After the loading step, the HLB Oasis® μelution plate was washed using 200 μl of 5 % MeOH in H2O followed by 200 μl of 20 % MeOH in H2O. Spilanthol was eluted using two times 25 μl ACN. To the eluate, 25 μl of a 80:20 (V/V) H2O:MeOH solution was added and analysed with a UPLC-MS^2 method, as further described."}, "[2]": {"experiment": "Caco-2 cell permeability assay (Transwell, ab and ba direction)", "type": "in vitro ADME, human", "settings": "human; for Papp A→B at 120 min, 10 μg/ml / Papp B→A at 120 min, 10 μg/ml: mean ± SD, n = 2; for Papp A→B at 120 min, 10 μg/ml: read-out: apparent permeability coefficient (Papp), apical-to-basolateral; for Papp B→A at 120 min, 10 μg/ml: read-out: apparent permeability coefficient (Papp), basolateral-to-apical; for efflux ratio at 120 min, 10 μg/ml: read-out: efflux ratio (Papp,ba/Papp,ab)", "procedure": "(§1) Caco-2 cells, originating from a human colorectal carcinoma were maintained in Dulbecco's modified Eagle's medium (DMEM) at 95 % humidity and 37 °C in an atmosphere of 5 % CO2, supplemented with 10 % (V/V) fetal bovine serum, 2 mM L-glutamine and 1 % non-essential amino acids (100x), 100 U/ml penicillin and 100 μg/ml streptomycin (all from Invitrogen/GIBCO, Ghent, Belgium). The Caco-2 cell intestinal model was used as a model for the gut mucosa to investigate the permeation of spilanthol. Caco-2 cells were seeded at a density of 2.6 · 10^5 cells/cm^2 cells for each Transwell (Corning Costar, New York, USA) membrane insert filter (0.4 μm pore size, 12 mm filter diameter) and cultivated in the described supplemented DMEM, also containing 100 units/ml penicillin and 100 μg/ml streptomycin. The medium was changed every second day. The cells were allowed to grow and differentiate for 21-29 days until monolayers were formed. Intact membranes/integrity of the monolayers were checked via the measurement of transepithelial electrical resistance (TEER) of the monolayers using the Millicell-ERS system (Millipore Corp., Bedford, MA, USA) before and after transport experiments. The experiment was performed in duplicate for each dose solution. Transport experiments were carried out in the apical-to-basolateral (ab) direction and in the basolateral-to-apical (ba) direction in Hanks' Balanced Salt solution, according to Hubatsch et al.. Two dose solutions of purified spilanthol at 10 μg/ml were tested, differing in solvent: 0.5 % ethanol (further indicated as DS1) and 0.5 % of a mixture of vitamin E-TPGS (33.3 %), ethanol (11.1 %), PEG 400 (33.3 %) and PG (22.2 %) (further indicated as DS2) dissolved in HBSS. Final volumes of 0.4 ml apically and 1.2 ml basolaterally were used for 12-mm filter supports during the transport experiment. Samples were taken at 15, 30, 60, 90 and 120 min from the acceptor (= receiver) compartment (basolateral to apical transport: 100 μl; apical to basolateral transport: 300 μl) and were immediately replaced by fresh HBSS. […] Quantification of spilanthol was conducted using the UPLC-MS^2 method as described below. The apparent permeability coefficient (Papp in cm/s) of spilanthol was calculated from a non-sink equation. From Fick's first law: J = - […] is the diffusion coefficient, J is the flux or transfer rate along the donor-to-receptor side, x is the distance from the donor compartment and C(x) is the concentration in the barrier at the coordinate x in the barrier), the following differential equation is derived: dMr(t)/dt = Papp × […])], in which Mr is the amount of substance in the receiver chamber, Papp is the apparent permeability coefficient (a product of distribution coefficient with diffusion coefficient divided by the barrier thickness), A is the cross-sectional area of the barrier, Cd is the donor concentration and Cr is the receiver concentration. This differential equation is the basis to calculate Papp values of compounds requiring sink, as well as non-sink conditions with different initial conditions to solve this equation. […] Non-linear curve fitting by minimisation of the sum of squared residuals (SSR) was used to obtain the Papp. The efflux ratio is calculated as Papp,ba/Papp,ab, while the uptake ratio is calculated as Papp,ab/Papp,ba."}, "Caco-2 cell monolayer": {"test_system": "Caco-2 cell monolayer", "experiment": "Caco-2 cell permeability assay (Transwell, ab and ba direction)", "type": "in vitro ADME, human", "procedure": "as §1"}},
  "note": "Read-outs that look alike come from different tables or passages of the source.",
  "data": [
    {"compound": "C/C=C/C=C\\CC/C=C/C(=O)NCC(C)C", "note": "[spilanthol, deca-2E,6Z,8E-trienoic acid isobutylamide]", "values": [
      {"measurement": "k el", "setting": "[1]; both sexes, Wistar, rat, serum, po, 0.73 mg, oral gavage of 1.5 ml of 0.73 mg spilanthol/g dose solution (A. Vogel extract), one compartmental model, read-out: elimination rate constant ke (converted)", "result": 0.000167, "unit": "s⁻¹"},
      {"measurement": "half-life", "setting": "[1]; both sexes, Wistar, rat, serum, po, oral gavage (discussion, in brackets)", "result": 1.05, "unit": "h"},
      {"measurement": "half-life", "setting": "[1]; both sexes, Wistar, rat, serum, po, oral gavage, ln(2)/ke", "result": 1.13, "unit": "h"},
      {"measurement": "elimination rate constant ke", "setting": "[1]; rat serum, oral gavage of 1.5 ml of 0.73 mg spilanthol/g dose solution (A. Vogel extract), one compartmental model", "result": 0.61, "unit": "h⁻¹"},
      {"measurement": "Papp A→B at 120 min, 10 μg/ml", "setting": "[2]; Caco-2, DS1 (10 μg/ml purified spilanthol, 0.5 % ethanol in HBSS)", "result": 84.2, "unit": "×10⁻⁶ cm/s"},
      {"measurement": "Papp B→A at 120 min, 10 μg/ml", "setting": "[2]; Caco-2, DS1", "result": 102, "unit": "×10⁻⁶ cm/s"},
      {"measurement": "efflux ratio at 120 min, 10 μg/ml", "setting": "[2]; Caco-2, DS1", "result": 1.21},
      {"measurement": "Papp A→B at 120 min, 10 μg/ml", "setting": "[2]; Caco-2, DS2 (10 μg/ml, 0.5 % vitamin E-TPGS/ethanol/PEG 400/PG mixture in HBSS)", "result": 56.1, "unit": "×10⁻⁶ cm/s"},
      {"measurement": "Papp B→A at 120 min, 10 μg/ml", "setting": "[2]; Caco-2, DS2", "result": 52, "unit": "×10⁻⁶ cm/s"},
      {"measurement": "efflux ratio at 120 min, 10 μg/ml", "setting": "[2]; Caco-2, DS2", "result": 0.93},
      {"measurement": "recovery at 120 min, 10 μg/ml", "setting": "[2]; Caco-2, donor plus acceptor at last time point (120 min), read-out: mass balance, total recovery", "result": "105 to 121", "unit": "%"},
      {"measurement": "uptake ratio (Papp,ab/Papp,ba)", "setting": "Caco-2 cell monolayer; DS1", "result": 0.82},
      {"measurement": "amount of spilanthol permeated, apical-to-basolateral", "setting": "Caco-2 cell monolayer; DS1, after 120 min", "result": 3.20, "unit": "µg"},
      {"measurement": "amount of spilanthol permeated, basolateral-to-apical", "setting": "Caco-2 cell monolayer; DS1, after 120 min", "result": 3.86, "unit": "µg"},
      {"measurement": "percentage of applied spilanthol permeated, apical-to-basolateral", "setting": "Caco-2 cell monolayer; DS1, after 120 min", "result": 79.8, "unit": "%"},
      {"measurement": "percentage of applied spilanthol permeated, basolateral-to-apical", "setting": "Caco-2 cell monolayer; DS1, after 120 min", "result": 32.1, "unit": "%"},
      {"measurement": "uptake ratio (Papp,ab/Papp,ba)", "setting": "Caco-2 cell monolayer; DS2", "result": 1.08},
      {"measurement": "amount of spilanthol permeated, apical-to-basolateral", "setting": "Caco-2 cell monolayer; DS2, after 120 min", "result": 2.47, "unit": "µg"},
      {"measurement": "amount of spilanthol permeated, basolateral-to-apical", "setting": "Caco-2 cell monolayer; DS2, after 120 min", "result": 2.49, "unit": "µg"},
      {"measurement": "percentage of applied spilanthol permeated, apical-to-basolateral", "setting": "Caco-2 cell monolayer; DS2, after 120 min", "result": 64.3, "unit": "%"},
      {"measurement": "percentage of applied spilanthol permeated, basolateral-to-apical", "setting": "Caco-2 cell monolayer; DS2, after 120 min", "result": 21.6, "unit": "%"},
      {"measurement": "percentage of applied DS permeated, apical-to-basolateral (absorptive direction)", "setting": "Caco-2 cell monolayer; after 120 min, DS1 and DS2", "result": "64–80%"},
      {"measurement": "difference in Papp values between apical-to-basolateral and basolateral-to-apical direction", "setting": "Caco-2 cell monolayer; both dose solutions", "result": "less than 2 fold"}
    ]}
  ]
}
